≈ marks a conversion by molar mass, not a printed value. Peptide text beside a SMILES is read from it.
What was measured:
A. baumannii ATCC 19606 [1] = assay: Cytoplasmic membrane depolarization assay (DiSC3-5); type: cell-based, Acinetobacter baumannii; details: DiSC3-5 fluorescence, peptide at its MIC, polymyxin B as positive control; three replicates
Method: The depolarization of the bacterial cytoplasmic membrane was determined by fluorescence measurements of the membrane potential-sensitive dye, DiSC3-5 (ref. [16]). Briefly, A. baumannii ATCC 19606 and P. aeruginosa PAO1 were grown at 37 °C until mid-log phase (OD600 = 0.5). The cells were then centrifuged using the same conditions described for the NPN uptake assays, washed twice with washing buffer containing 20 mmol l^−1 glucose and 5 mmol l^−1 HEPES (pH 7.2). The cells were diluted 1:10 (OD600 = 0.05) in a buffer containing 0.1 mol l^−1 KCl, 20 mmol l^−1 glucose and 5 mmol l^−1 HEPES (pH 7.2). About 100 μl of bacterial solution was then incubated for 15 min with 20 nmol l^−1 of DiSC3-5 until the fluorescence reached a plateau, that is, the dye was fully internalized into the bacterial membrane. Transmembrane potential changes were monitored by observing the difference in the fluorescence emission intensity of DiSC3-5 (λex = 622 nm, λem = 670 nm), after the addition of 100 μl of peptide aqueous solution at its MIC. All assays were performed in three biological replicates. The relative fluorescence values were calculated for the course of the experiment using non-linear fitting, and the untreated control (buffer + bacteria + fluorescent dye) served as baseline. The following equation was applied to show the percentage difference between the fluorescence of the untreated control (baseline) and the sample: Percentagedifference=100×(fluorescencesample−baseline)/baseline

[2] = tested on: 11 clinically relevant bacterial pathogens; type: cell-based; details: for Active or Inactive: Supplementary Dataset 2, against the 11 pathogens tested
In short: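 Antimicrobial activity is measured by broth microdilution against log-phase bacteria (OD600 0.3–0.5). Peptide range: 1 to 64 μmol l^−1.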

A. baumannii ATCC 19606 [3] = type: cell-based, Acinetobacter baumannii; details: ATCC 19606, 20 h
Excerpt: (§1) The following Gram-negative bacteria were used in our study: A. baumannii ATCC 19606, E. coli ATCC 11775, E. coli AIC221 (E. coli MG1655 phnE_2::FRT), E. coli AIC222 (E. coli MG1655 pmrA53 phnE_2::FRT (colistin resistant)), K. pneumoniae ATCC 13883, P. aeruginosa PAO1 and P. aeruginosa PA14. The following Gram-positive bacteria were also used in our study: S. aureus ATCC 12600, S. aureus ATCC BAA-1556 (methicillin-resistant strain), E. faecalis ATCC 700802 (vancomycin-resistant strain) and E. faecium ATCC 700221 (vancomycin-resistant strain). Bacteria were grown from frozen stocks and plated on Luria–Bertani (LB) or Pseudomonas isolation agar plates (P. aeruginosa strains) and incubated overnight at 37 °C. After the incubation period, a single colony was transferred to 5 ml of LB medium, and cultures were incubated overnight (16 h) at 37 °C. The following day, an inoculum was prepared by diluting the overnight cultures 1:100 in 5 ml of the respective media and incubating them at 37 °C until bacteria reached logarithmic phase (OD600 = 0.3–0.5).
(§2) The in vitro antimicrobial activity of the peptides was assessed by using the broth microdilution assay. […] Aqueous solutions of the peptides were added to the plate at concentrations ranging from 1 to 64 μmol l^−1. […] The optical density of the plates was measured at 600 nm using a spectrophotometer. All assays were done as three biological replicates.

E. coli AIC221 = type: cell-based, Escherichia coli; details: AIC221, 20 h
Excerpt: as §1, §2

P. aeruginosa PA14 = type: cell-based, Pseudomonas aeruginosa; details: PA14, 20 h
Excerpt: as §1, §2

P. aeruginosa PAO1 = type: cell-based, Pseudomonas aeruginosa; details: PAO1, 20 h
Excerpt: as §1, §2

[4] = tested on: E. faecium ATCC 700221 (vancomycin-resistant strain); type: cell-based, Enterococcus faecium; details: ATCC 700221, 20 h
Excerpt: as §1, §2

HEK293T cells = details: 24 h
In short: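 5,000 cells/well seeded a day ahead in DMEM with 10% FBS, then treated with peptides; viability by MTT (0.5 mg/ml, 4 h, 37 °C), formazan in acidic isopropanol read at 570 nm. Concentration causing 50% lysis from non-linear regression; three biological replicates, two technical each.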

K. pneumoniae ATCC 13883 = type: cell-based, Klebsiella pneumoniae; details: ATCC 13883, 20 h
Excerpt: as §1, §2

[5] = tested on: S. aureus ATCC BAA-1556 (methicillin-resistant strain); type: cell-based, Staphylococcus aureus; details: ATCC BAA-1556, 20 h
Excerpt: as §1, §2

E. coli ATCC 11775 = type: cell-based, Escherichia coli; details: ATCC 11775, 20 h
Excerpt: as §1, §2

S. aureus ATCC 12600 = type: cell-based, Staphylococcus aureus; details: ATCC 12600, 20 h
Excerpt: as §1, §2

Structure (SMILES)	Cytoplasmic membrane depolarization, in words (A. baumannii ATCC 19606 [1])	Active or Inactive [2]	Minimal inhibitory concentration, A. baumannii ATCC19606 (A. baumannii ATCC 19606 [3])	Minimal inhibitory concentration, E. coli AIC221 (E. coli AIC221)	Minimal inhibitory concentration, P. aeruginosa PA14 (P. aeruginosa PA14)	Minimal inhibitory concentration, P. aeruginosa PAO1 (P. aeruginosa PAO1)	Minimal inhibitory concentration, E. faecium ATCC700221-VRE [4]	CC50 (HEK293T cells)	Minimal inhibitory concentration, K. pneumoniae ATCC133883 (K. pneumoniae ATCC 13883)	Minimal inhibitory concentration, S. aureus ATCC BAA-1556-MRSA [5]	MIC (lowest MIC value in the antimicrobial activity assays) ([2]; Supplementary Table 17, lowest MIC among the strains tested)	Minimal inhibitory concentration, E. coli ATCC11775 (E. coli ATCC 11775)	Minimal inhibitory concentration, S. aureus ATCC12600 (S. aureus ATCC 12600)	TI (therapeutic index) (HEK293T cells)
CC[C@H](C)[C@H](NC(=O)CNC(=O)[C@H](Cc1c[nH]cn1)NC(=O)[C@H](CC(N)=O)NC(=O)[C@H](CCCCN)NC(=O)[C@H](CCC(N)=O)NC(=O)[C@@H](N)CCCNC(=N)N)C(=O)N[C@@H](Cc1c[nH]cn1)C(=O)N[C@@H](Cc1ccccc1)C(=O)N[C@@H](CCCNC(=N)N)C(=O)N[C@H](C(=O)N[C@@H](CC(C)C)C(=O)N[C@@H](C)C(=O)N[C@@H](CCCCN)C(=O)N[C@@H](C)C(=O)N[C@@H](CC(C)C)C(=O)N[C@@H](CCCNC(=N)N)C(=O)O)C(C)C [Hesperelin-3] (H-RQKNHGIHFRVLAKALR-OH; N-terminus and C-terminus assumed)	most potent depolarization effects	Active												
CC[C@H](C)[C@H](NC(=O)[C@H](CCCCN)NC(=O)[C@H](CCCCN)NC(=O)[C@H](Cc1ccccc1)NC(=O)[C@H](Cc1ccccc1)NC(=O)[C@@H](NC(=O)[C@@H](NC(=O)[C@H](CO)NC(=O)[C@H](CCCCN)NC(=O)[C@@H](NC(=O)[C@@H](NC(=O)[C@H](Cc1c[nH]c2ccccc12)NC(=O)[C@H](CCCCN)NC(=O)[C@H](CCCCN)NC(=O)[C@@H](NC(=O)[C@H](CCC(=O)O)NC(=O)[C@H](CCCCN)NC(=O)[C@H](CC(C)C)NC(=O)[C@@H](NC(=O)[C@H](CCCCN)NC(=O)[C@H](CCCNC(=N)N)NC(=O)[C@H](CC(C)C)NC(=O)[C@H](CC(C)C)NC(=O)[C@@H](N)CCCCN)C(C)C)[C@@H](C)O)C(C)C)[C@@H](C)CC)C(C)C)C(C)C)C(=O)N[C@@H](CCCNC(=N)N)C(=O)N[C@@H](CCCCN)C(=O)O [Hesperelin-1] (H-KLLRKVLKETKKWVIKSVVFFKKIRK-OH; N-terminus and C-terminus assumed)		Active	4 µM (≈ 13 µg/mL)	8 µM (≈ 26 µg/mL)	16 µM (≈ 51.9 µg/mL)	8 µM (≈ 26 µg/mL)	2 µM (≈ 6.49 µg/mL)	> 128 µM						
CC(C)C[C@H](NC(=O)[C@H](CC(C)C)NC(=O)[C@@H](NC(=O)[C@H](CCCNC(=N)N)NC(=O)[C@H](C)NC(=O)[C@H](Cc1ccccc1)NC(=O)[C@H](CCCNC(=N)N)NC(=O)[C@H](CO)NC(=O)[C@H](Cc1c[nH]c2ccccc12)NC(=O)[C@H](CCCNC(=N)N)NC(=O)[C@H](CC(C)C)NC(=O)[C@H](CCCCN)NC(=O)[C@H](CC(C)C)NC(=O)[C@@H](N)Cc1ccccc1)C(C)C)C(=O)O [Equusin-1] (H-FLKLRWSRFARVLL-OH; N-terminus and C-terminus assumed)		Active		4 µM (≈ 7.22 µg/mL)	4 µM (≈ 7.22 µg/mL)	16 µM (≈ 28.9 µg/mL)	1 µM (≈ 1.81 µg/mL)	> 128 µM	16 µM (≈ 28.9 µg/mL)	16 µM (≈ 28.9 µg/mL)	1 µM (≈ 1.81 µg/mL)			
CC[C@H](C)[C@H](NC(=O)[C@H](Cc1ccccc1)NC(=O)[C@@H](N)CCCCN)C(=O)N[C@@H](CC(C)C)C(=O)N[C@@H](CC(N)=O)C(=O)N[C@@H](Cc1ccccc1)C(=O)N[C@@H](CCCCN)C(=O)N[C@H](C(=O)N1CCC[C@H]1C(=O)N[C@H](C(=O)N[C@@H](CO)C(=O)N[C@@H](Cc1ccccc1)C(=O)N[C@@H](CCCCN)C(=O)O)[C@@H](C)CC)[C@@H](C)CC [Pinguinusin-1] (H-KFILNFKIPISFK-OH; N-terminus and C-terminus assumed)		Active	32 µM (≈ 51 µg/mL)	4 µM (≈ 6.38 µg/mL)				> 128 µM	16 µM (≈ 25.5 µg/mL)			16 µM (≈ 25.5 µg/mL)		
CC[C@H](C)[C@H](NC(=O)[C@H](CO)NC(=O)CNC(=O)[C@H](CC(C)C)NC(=O)[C@H](CC(C)C)NC(=O)[C@H](CC(C)C)NC(=O)[C@H](CCCNC(=N)N)NC(=O)[C@H](CCCCN)NC(=O)[C@@H](NC(=O)[C@H](CO)NC(=O)[C@H](CC(N)=O)NC(=O)[C@@H](NC(=O)[C@H](CC(C)C)NC(=O)[C@@H](N)CC(C)C)[C@@H](C)CC)[C@@H](C)CC)C(=O)N[C@@H](CC(C)C)C(=O)O [Arctodutin-1] (H-LLINSIKRLLLGSIL-OH; N-terminus and C-terminus assumed)		Active	8 µM (≈ 13.3 µg/mL)				2 µM (≈ 3.33 µg/mL)	> 128 µM		8 µM (≈ 13.3 µg/mL)			8 µM (≈ 13.3 µg/mL)	
CC[C@H](C)[C@H](NC(=O)[C@H](Cc1ccc(O)cc1)NC(=O)[C@H](C)NC(=O)[C@@H](N)CCCNC(=N)N)C(=O)N[C@@H](CS)C(=O)N[C@@H](CCCNC(=N)N)C(=O)N[C@@H](CCCCN)C(=O)N[C@@H](CCCCN)C(=O)N[C@@H](Cc1ccccc1)C(=O)N[C@@H](CC(C)C)C(=O)N[C@@H](CO)C(=O)N[C@@H](CC(C)C)C(=O)N[C@@H](CCCNC(=N)N)C(=O)N[C@@H](CCCCN)C(=O)N[C@@H](C)C(=O)N[C@@H](CO)C(=O)N[C@H](C(=O)N[C@@H](CCCCN)C(=O)N[C@@H](CC(C)C)C(=O)N[C@@H](CCC(N)=O)C(=O)N[C@@H](CO)C(=O)N[C@@H](CC(C)C)C(=O)N[C@H](C(=O)N[C@@H](CCCNC(=N)N)C(=O)N[C@@H](CCSC)C(=O)N[C@@H](CCCCN)C(=O)O)C(C)C)[C@@H](C)CC [Equusin-2] (H-RAYICRKKFLSLRKASIKLQSLVRMK-OH; N-terminus and C-terminus assumed)	most potent depolarization effects	Active	8 µM (≈ 25.1 µg/mL)	16 µM (≈ 50.2 µg/mL)				> 128 µM						> 16
CC[C@H](C)[C@H](NC(=O)[C@H](CCCCN)NC(=O)[C@@H](N)CCCNC(=N)N)C(=O)N[C@@H](CC(C)C)C(=O)NCC(=O)N[C@@H](CC(=O)O)C(=O)N[C@@H](CC(C)C)C(=O)N[C@@H](CCCCN)C(=O)N[C@@H](Cc1ccccc1)C(=O)N[C@@H](CC(C)C)C(=O)N[C@@H](CCC(=O)O)C(=O)N[C@@H](CO)C(=O)N[C@@H](CC(C)C)C(=O)N[C@@H](CCCCN)C(=O)N[C@H](C(=O)N[C@@H](Cc1ccc(O)cc1)C(=O)O)[C@@H](C)O [Anomalopterin-1] (H-RKILGDLKFLESLKTY-OH; N-terminus and C-terminus assumed)	most potent depolarization effects	Active	64 µM (≈ 123 µg/mL)					> 128 µM						> 2
